One assay concerns SREBP pathway. In words: SREBP luciferase reporter gene system (SRE-luciferase assay). The class given is cell-based, human. To be noted: Homo sapiens, Huh-7, 16 h, Huh-7/SRE-luc cells, sterol-deficient medium, 0.01-10 µM. How it is done: Huh-7/SRE-luc cells were incubated in sterol-deficient medium (5% lipoprotein deficient serum, 2 µM lovastatin, 10 µM mevalonic acid) with corresponding concentrations of compounds for 16 hours. The Huh-7/SRE-luc cells were human hepatoma cell line Huh-7 stably expressing LDLR promotor-luciferase and green fluorescent protein (GFP). These cells were obtained by transfecting Huh-7 with pLDLR-promotor-luciferase and pEGFP-N1 plasmids, followed by screening under G418 antibiotic selection pressure. The Huh-7 cells were purchased from ATCC, the pLDLR-promotor-luciferase plasmid was obtained by molecular cloning methods, and the pEGFP-N1 plasmid was purchased from Addgene.
After compound treatment, the cells were lysed with lysis buffer (E397A, Promega). After the addition of luciferase substrate (E1500, Promega), the activity of SRE-driven luciferase was measured using a BioTek Synergy HTX microplate reader (including but not limited to this type of instrument). The fluorescence intensity of green fluorescent protein (EGFP) was also measured using the above BioTek microplate reader (including but not limited to this type of instrument) and served as an internal control. The ratio of SRE-driven luciferase activity divided by the fluorescence intensity of green fluorescent protein was used as an indicator of SREBP pathway activity. The test data for each test compound were analyzed using Prism software (with the DMSO-treated group as the reference to calculate the compound inhibition rate, fitted using the Prism log(inhibitor) vs. response--Variable slope (four-parameter) model, calculation formula: Y = Bottom + (Top - Bottom)/(1 + 10^((LogIC50 - X) × HillSlope))), to obtain the IC50 parameters of the compounds.
Using the method described in 1.1, the inhibitory effect of the compounds of the present disclosure on the SREBP pathway was tested. The concentration gradient for each compound was designed as 0.01, 0.03, 0.1, 0.3, 1.0, 3.0, and 10 µM, with the vehicle DMSO as the control.
For the compound `COc1c(F)cccc1C(O)CCC[C@@H](C)[C@H]1CC[C@H]2C3=C(F)C[C@H]4[C@@H](O)[C@@H](O)CC[C@]4(C)[C@H]3CC[C@]12C` (stereo partly drawn) [Compound 48, (1R,3aR,5aR,6R,7S,9aR,9bR,11aR)-4-fluoro-1-[(2R)-6-(3-fluoro-2-methoxyphenyl)-6-hydroxyhexan-2-yl]-9a,11a-dimethyl-2,3,3a,5,5a,6,7,8,9,9a,9b,10,11,11a-tetradecahydro-1H-cyclopenta[1,2-a]phenanthrene-6,7-diol], the half-maximal inhibitory concentration (IC50) was determined as 0.203 µM.
Consider `COc1cccc(F)c1C(CCC[C@@H](C)[C@H]1CC[C@H]2[C@H]3[C@H](CC[C@]12C)[C@@]1(C)CC[C@H](O)[C@H](O)[C@@H]1CC3(F)F)=NO` (single isomer, unassigned) [Compound 211, [(1Z,5R)-5-[(1R,3aS,3bS,5aR,6R,7S,9aS,9bS,11aR)-4,4-difluoro-6,7-dihydroxy-9a,9b,11a-trimethylhexadecahydro-1H-cyclopenta[1,2-a]phenanthren-1-yl]-1-(2-fluoro-6-methoxyphenyl)hexylidene]hydroxylamine or [(1E,5R)-5-[(1R,3aS,3bS,5aR,6R,7S,9aR,9bS,11aR)-4,4-difluoro-6,7-dihydroxy-9a,11a-dimethylhexadecahydro-1H-cyclopenta[1,2-a]phenanthren-1-yl]-1-(2-fluoro-6-methoxyphenyl)hexylidene]hydroxylamine], for which the IC50 stood at 0.08 µM.
Turning to `C[C@H](CCCC(O)c1cncc2c1cnn2C)[C@H]1CC[C@H]2[C@H]3[C@H](CC[C@]12C)[C@@]1(C)CC[C@H](O)[C@H](O)[C@@H]1CC3(F)F` (stereo partly drawn) [Compound 275, (1R,3aS,3bS,5aR,6R,7 S,9aR,9bS,11aR)-4,4-Difluoro-1-[(2R)-6-hydroxy-6-(1-methylpyrazolo[3,4-c]pyridin-4-yl)hexan-2-yl]-9a,11a-dimethylhexadecahyd ro-1H-cyclopenta[1,2-a]phenanthrene-6,7-diol], the half-maximal inhibitory concentration (IC50) was 0.26 µM.
Consider `C[C@H](CCCC(O)c1ccncc1)[C@H]1CC[C@H]2[C@H]3[C@H](CC[C@]12C)[C@@]1(C)CC[C@H](O)[C@H](O)[C@@H]1CC3(F)F` (stereo partly drawn) [Compound 76, (1R,3aS,3bS,5aR,6R,7S,9aR,9bS,11aR)-4,4-difluoro-1-[(2R)-6-hydroxy-6-(pyridin-4-yl)hexan-2-yl]-9a,11a-dimethylhexadecahydro-1H-cyclopenta[1,2-a]phenanthrene-6,7-diol], for which the IC50 came to 0.9 µM.
`COc1nc(F)ccc1[C@](C)(O)CCC[C@@H](C)[C@H]1CC[C@H]2[C@H]3[C@H](CC[C@]12C)[C@@]1(C)CC[C@H](O)[C@H](O)[C@@H]1CC3(F)F` [Compound 310, (1R,3aS,3bS,5aR,6R,7S,9aR,9bS,11aR)-4,4-difluoro-1-[(2R,6R)-6-(6-fluoro-2-methoxypyridin-3-yl)-6-hydroxyheptan-2-yl]-9a,11a-dimethylhexadecahydro-1H-cyclopenta[1,2-a]phenanthrene-6,7-diol]: the IC50 worked out at 0.209 µM.
On the same count and under the same terms, in the case of `C[C@H](CCCC(O)c1ccc(F)nc1OCc1ccccc1)[C@H]1CC[C@H]2[C@H]3[C@H](CC[C@]12C)[C@@]1(C)CC[C@H](O)[C@H](O)[C@@H]1CC3(F)F` (stereo partly drawn) [Compound 281, (1R,3aS,3bS,5aR,6R,7S,9aR,9bS,11aR)-1-[(2R)-6-[2-(benzyloxy)-6-fluoropyridin-3-yl]-6-hydroxyhexan-2-yl]-4,4-difluoro-9a,11a-dimethylhexadecahydro-1H-cyclopenta[1,2-a]phenanthrene-6,7-diol] it was 0.479 µM.
For `COc1cc(F)ccc1[C@@H](O)CCC[C@@H](C)[C@H]1CC[C@H]2C3=C(F)C[C@H]4[C@@H](O)[C@@H](O)CC[C@]4(C)[C@H]3CC[C@]12C` [Compound 133, (1R,3aR,5aR,6R,7S,9aR,9bR,11aR)-4-fluoro-1-[(2R,6S)-6-(4-fluoro-2-methoxyphenyl)-6-hydroxyhexan-2-yl]-9a,11a-dimethyl-2,3,3a,5,5a,6,7,8,9,9a,9b,10,11,11a-tetradecahydro-1H-cyclopenta[1,2-a]phenanthrene-6,7-diol], the 50% inhibitory concentration (IC50) was found to be 0.095 µM.
With `COc1cc(Cl)ccc1[C@H](O)CCC[C@@H](C)[C@H]1CC[C@H]2C3=C(F)C[C@H]4[C@@H](O)[C@@H](O)CC[C@]4(C)[C@H]3CC[C@]12C` [Compound 110, (1R,3aR,5aR,6R,7S,9aR,9bR,11aR)-1-[(2R,6R)-6-(4-chloro-2-methoxyphenyl)-6-hydroxyhexan-2-yl]-4-fluoro-9a,11a-dimethyl-2,3,3a,5,5a,6,7,8,9,9a,9b,10,11,11a-tetradecahydro-1H-cyclopenta[1,2-a]phenanthrene-6,7-diol], the IC50 is 1.13 µM.
As for `C[C@H](CCC[C@@H](O)c1cccc2c1cnn2C)[C@H]1CC[C@H]2C3=C(F)C[C@H]4[C@@H](O)[C@@H](O)CC[C@]4(C)[C@H]3CC[C@]12C` [Compound 253, (1R,3aR,5aR,6R,7S,9aR,9bR,11aR)-4-fluoro-1-[(2R,6R)-6-hydroxy-6-(1-methylindazol-4-yl)hexan-2-yl]-9a,11a-dimethyl-2,3,3a,5,5a,6,7,8,9,9a,9b,10,11,11a-tetradecahydro-1H-cyclopenta[1,2-a]phenanthrene-6,7-diol], the IC50 turned out to be 0.016 µM.
With `COc1cc(F)nc(OC)c1C(O)CCC[C@@H](C)[C@H]1CC[C@H]2[C@H]3[C@H](CC[C@]12C)[C@@]1(C)CC[C@H](O)[C@H](O)[C@@H]1CC3(F)F` (stereo partly drawn) [Compound 214, (1R,3aS,3bS,5aR,6R,7S,9aR,9bS,11aR)-4,4-difluoro-1-[(2R)-6-(6-fluoro-2,4-dimethoxypyridin-3-yl)-6-hydroxyhexan-2-yl]-9a,11a-dimethylhexadecahydro-1H-cyclopenta[1,2-a]phenanthrene-6,7-diol], the IC50 came to 0.183 µM.
Same read-out and setting: next, `COc1ncc(F)cc1[C@@H](O)CCC[C@@H](C)[C@H]1CC[C@H]2[C@H]3[C@H](CC[C@]12C)[C@@]1(C)CC[C@H](O)[C@H](O)[C@@H]1CC3(F)F` (single isomer, unassigned) [Compound 228]: 1.42 µM.
`C[C@H](CCCC(O)c1ccc(F)nc1O)[C@H]1CC[C@H]2[C@H]3[C@H](CC[C@]12C)[C@@]1(C)CC[C@H](O)[C@H](O)[C@@H]1CC3(F)F` (stereo partly drawn) [Compound 276, (1R,3aS,3bS,5aR,6R,7S,9aR,9bS,11aR)-4,4-difluoro-1-[(2R)-6-(6-fluoro-2-hydroxypyridin-3-yl)-6-hydroxyhexan-2-yl]-9a,11a-dimethylhexadecahydro-1H-cyclopenta[1,2-a]phenanthrene-6,7-diol]: the IC50 worked out at 0.925 µM.

The assay is the same for the next values; noted with them: Huh-7/SRE-luc cells, sterol-deficient medium, 16 hours, 0.01-10 µM.
For the compound `C[C@H](CCCC(O)c1ccc(F)nc1F)[C@H]1CC[C@H]2[C@H]3[C@H](CC[C@]12C)[C@@]1(C)CC[C@H](O)[C@H](O)[C@@H]1CC3(F)F` (single isomer, unassigned) [Compound 226, (1R,3aS,3bS,5aR,6R,7S,9aR,9bS,11aR)-1-[(2R,6S)-6-(2,6-difluoropyridin-3-yl)-6-hydroxyhexan-2-yl]-4,4-difluoro-9a,11a-dimethylhexadecahydro-1H-cyclopenta[1,2-a]phenanthrene-6,7-diol or (1R,3aS,3bS,5aR,6R,7S,9aR,9bS,11aR)-1-[(2R,6R)-6-(2,6-difluoropyridin-3-yl)-6-hydroxyhexan-2-yl]-4,4-difluoro-9a,11a-dimethylhexadecahydro-1H-cyclopenta[1,2-a]phenanthrene-6,7-diol], the half-inhibitory concentration (IC50) came to 0.1 µM.
Regarding `C[C@H](CCCC(O)c1cncc2c1cnn2C)[C@H]1CC[C@H]2[C@H]3[C@H](CC[C@]12C)[C@@]1(C)CC[C@H](O)[C@H](O)[C@@H]1CC3(F)F` (single isomer, unassigned) [Compound 287, (1R,3aS,3bS,5aR,6R,7S,9aR,9bS,11aR)-4,4-difluoro-1-[(2R,6S)-6-hydroxy-6-(1-methylpyrazolo[3,4-c]pyridin-4-yl)hexan-2-yl]-9a,11a-dimethylhexadecahydro-1H-cyclopenta[1,2-a]phenanthrene-6,7-diol or (1R,3aS,3bS,5aR,6R,7S,9aR,9bS,11aR)-4,4-difluoro-1-[(2R,6R)-6-hydroxy-6-(1-methylpyrazolo[3,4-c]pyridin-4-yl)hexan-2-yl]-9a,11a-dimethylhexadecahydro-1H-cyclopenta[1,2-a]phenanthrene-6,7-diol], the IC50 came to 0.131 µM.
With `COc1cncc(F)c1C(O)CCC[C@@H](C)[C@H]1CC[C@H]2[C@H]3[C@H](CC[C@]12C)[C@@]1(C)CC[C@H](O)[C@H](O)[C@@H]1CC3(F)F` (single isomer, unassigned) [Compound 252, (1R,3aS,3bS,5aR,6R,7S,9aR,9bS,11aR)-4,4-difluoro-1-[(2R,6R)-6-(3-fluoro-5-methoxypyridin-4-yl)-6-hydroxyhexan-2-yl]-9a,11a-dimethylhexadecahydro-1H-cyclopenta[1,2-a]phenanthrene-6,7-diol or (1R,3aS,3bS,5aR,6R,7S,9aR,9bS,11aR)-4,4-difluoro-1-[(2R,6S)-6-(3-fluoro-5-methoxypyridin-4-yl)-6-hydroxyhexan-2-yl]-9a,11a-dimethylhexadecahydro-1H-cyclopenta[1,2-a]phenanthrene-6,7-diol], the 50% inhibitory concentration (IC50) stood at 0.031 µM.

Source of the values: patent EP4752152A1, “STEROID COMPOUND, AND PREPARATION METHOD THEREFOR AND USE THEREOF” (Cholesgen (Shanghai) Co.Ltd., priority 2023, dated 2025).
